Structures are written as SMILES. Residues, ends and D or L forms follow the SMILES beside them. *: point of attachment. Cbz = O=C(OCc1ccccc1)*

On to `COc1c(O)c(OC)c2c(=O)cc(-c3ccc(O)cc3)oc2c1OC`, for which the melting point lay in the range of 266 to 268 °C.

`Cc1cc(C)c(C(=O)O)s1`: the melting point was in the range of 153 to 155 °C. `CN(C)C1CC2=CNC=C3C=C(C=O)OCC1=C32` (configuration not stated) returned a melting point of 175 to 176 °C.

The compound `COc1ccccc1NC(=NC#N)NC(NC(=O)c1ccc(Cl)cc1)C(C)(Cl)Cl` (configuration not stated) returned a melting point of 185 to 186 °C. The compound `COc1ccnc2c1C(=O)c1c(-c3ccccc3NC(=O)C(F)(F)F)ccnc1C2=O` displayed a melting point of 158 °C.

For the compound `CCCc1c(OC(C(=O)OCC)c2ccc(OC)cc2)ccc(C(C)=O)c1O` (configuration not stated), the melting point lay in the range of 87 to 89 °C.

For `COC(=O)C(Cc1ccccc1)NC(=O)C(Cc1ccccc1)NC(=O)CNC(=O)OCc1ccccc1` (stereo not drawn) (Cbz-Gly-Phe-Phe-OMe; configuration not given here), the melting point lay in the range of 122 to 124 °C. Under `CCOC(=O)C(=O)Nc1cc(C)c(C)cc1C(N)=O` stands 190 to 193 °C. Under `O=Cc1ccc(O)c(C=O)n1` stands 144 °C; under `Cc1c(C(N)=O)oc2c(C(=O)NCCCN3CCN(c4cc(Cl)ccc4O)CC3)cccc2c1=O`, 116 to 158 °C; under `COc1ccc(O)c(CSc2nc(C)cn2C)c1`, 111 to 112 °C.

In turn, `CC(=O)NCC1CN(c2ccc(NC=O)c(F)c2)C(=O)O1` (configuration not stated) returned a melting point of 196 to 198 °C.

As for `CCOC(=O)CC[C@H](NC(=O)c1ccc(CCc2cnc3nc(NC(=O)C(C)(C)C)nc(O)c3c2)cc1)C(=O)OCC`, the melting point was > 250 °C. Under `CC(C)(C)C(=O)OCOC(=O)C1CCc2c(c3ccccc3n2C(=O)c2ccccc2)C1` (configuration not stated) stands 75 to 77 °C. Under `Cc1nn2c(C(F)(F)F)cc(-c3ccc(C(F)(F)F)cc3)nc2c1C#N` stands 184 °C. With `CC(=O)OCC1OC(n2cnc3c(Cl)nc(N)nc32)C(OC(C)=O)C1OC(C)=O` (configuration not stated), the melting point was 58 to 60 °C. Under `O=C(Nc1ccc(F)cc1F)c1cccc(Cl)n1` stands 86 to 87 °C; under `CN(C)CC1Cc2c(n(C)c3ccc(O)cc23)C1` (configuration not stated), 110 °C. The same measure for `COC(=O)C1=C(C)NC(CO)=C(C(=O)OC)C1c1cccc([N+](=O)[O-])c1` (configuration not stated): 145 to 146 °C; for `C#CCn1c(I)cc(C(O)CC)c(C)c1=O` (configuration not stated): 126 to 127 °C. On to `COc1cc2ncc(N3C(=O)C4CCC3CC4)nc2cc1OC`, for which the melting point is 158 to 159 °C. With `COC(=O)CC(c1ccc(F)cc1)C(C#N)C(=O)OC` (configuration not stated), the melting point is 80.2 °C. The same measure for `CC1(CNC(=O)C(F)(F)F)CN(c2c(F)cc3c(=O)c(C(=O)O)cn(C4CC4)c3c2F)C1`: 232 to 237 °C; for `CN1C(=O)N(c2c(Cl)cccc2Cl)Cc2cnc(NCCc3ccccc3)nc21`: 148 to 151 °C. Take `N#Cc1cc(N)ccc1N1CCN(C2CCSCC2)CC1`: the melting point came out at 109 °C. Under `CCCCCCCCCCCCCCOc1ccc(C(=O)O)cc1C(C)(C)C` stands 121 to 123 °C; under `Nc1nc(N)nc(-c2ccc(-c3ccccc3)c3ccccc23)n1`, 239 to 240 °C; under `CC(C)=NN=C1NCC(=O)N1`, 182 to 187 °C. The same measure for `COc1ccc(-c2cnc3[nH]c(=O)n(CC4CCCCC4)c3n2)cn1`: 235 to 237 °C; for `O=C(C=Cc1ccc(O)cc1)C=Cc1ccc(O)cc1`: 236 °C.

Compound `Cc1ccc(-n2c(-c3ccc(Br)cc3)c(Br)c(Br)c2-c2ccc(Br)cc2)cc1` gave a melting point of 240 to 242 °C. `O=C(O)CCC1(c2cccs2)SCCS1` came in with a melting point of 55 to 64 °C.

In the case of `CC(C)(CO)NS(=O)(=O)c1cc([N+](=O)[O-])c(Cl)s1`, the melting point was 113 °C. Under `CNCC1Cc2cc(F)cc(-c3cccc(OC)c3OC)c2O1` (configuration not stated) stands 85 to 89 °C. `Cc1cc(C)c(C2C(=O)CC(CC3CCOC3)CC2=O)c(C)c1` (configuration not stated) returned a melting point of 62 to 64 °C. Under `CC(C)c1ccc(CCCC(=O)O)cc1` stands 50 to 51 °C. For the compound `N#Cc1ccc(C(Cl)(Cl)Cl)cc1C(Cl)(Cl)Cl`, the melting point is 76 to 78 °C. Under `COc1ccc(CNC(=O)c2[nH]c(C)c(-c3nc4ccc(C(=O)c5ccccc5)cc4[nH]3)c2C)cc1OC` stands 120 to 122 °C; under `CCc1cc2c(c(Sc3ccccc3)cc(=O)n2Cc2ccc(-c3ccccc3-c3nnn(C(c4ccccc4)(c4ccccc4)c4ccccc4)n3)cc2)c(CC)n1`, 156 to 158 °C. Under `CCOc1nn(Cc2ccc(OCc3csc(-c4ccccc4)n3)cc2)cc1CCC(=O)O` stands 114 to 115 °C; under `CCC(C(=O)O)c1ccc(C(CC)C(=O)O)cc1` (configuration not stated), 198 to 202 °C; under `O=C1CCC(=O)N1[C@H]1CC[C@H](Nc2nccc(-n3nnc4ccccc43)n2)CC1`, 205 to 210 °C. Under `O=C(c1ccccc1)n1ccc2ccccc21` stands 54 to 55 °C. `FC(F)(F)c1cc(-c2ncn(CCCN3CCOCC3)c2-c2ccncc2)cc(C(F)(F)F)c1` registered a melting point of 136 to 138 °C. The same measure for `Cc1cnn(-c2nc3ccccc3c(=O)[nH]2)c1`: 169 to 171 °C. Under `CCCOc1ccccc1C1=NC(=O)C2=NC(C)=NC2=N1` stands 264 to 265 °C; under `COC(=O)c1nn(-c2cccc(C(F)(F)F)c2)cc(OC)c1=O`, 169 to 170 °C; under `COc1ccc2[nH]c(S(=O)Cc3cc(N(C)C)c(F)cn3)nc2c1` (configuration not stated), 99 to 102 °C. `CN(C)CCCOc1ccccc1CNc1ccccc1` came in with a melting point of 67 to 69 °C. Under `CC(C)COc1ccc(C(=O)O)cc1[N+](=O)[O-]` stands 184 to 186 °C. The same measure for `CCCCC[C@H]1CC[C@H](CC[C@H]2CC[C@H](C#N)CC2)CC1`: 56.3 °C; for `CON(C)C(=O)c1ccc(-c2cc(C(C)(C)C)c(O)c(C(C)(C)C)c2)cc1`: 176 to 177 °C.

Consider `CC(=O)c1ccc(N2CCN(c3cccc(C)c3)CC2)nn1`, for which the melting point is 136 °C. Consider `COC(=O)[C@H](Cc1cc(Cl)c(Oc2ccc3cc(OC)ccc3c2)c(Cl)c1)NC(=O)C(F)(F)F`, for which the melting point is 188 to 189 °C. Under `COc1cc(C=O)ccc1OCC(O)CN1CCC(c2noc3cc(F)ccc23)CC1` (configuration not stated) stands 107 to 108 °C. The same measure for `CC(C)n1nc(C(Cl)C(=O)c2ccc(F)cc2)ccc1=O` (configuration not stated): 86.5 to 88 °C; for `COc1ccc2c(c1)c(C=C1SC(=N)NC1=O)c(C)n2C(=O)c1ccc(Cl)cc1`: 269 to 270 °C. Under `CC(C)(C)OC(=O)N1CCC2(CC1)CC(CCc1ccccc1)=NO2` stands 121 to 124 °C; under `Cc1cc(NC(=O)c2cccc(CSc3ncnc4[nH]ncc34)c2)ccc1C(C)C`, 187 to 189 °C. With `COc1ccc2c(c1)C(=O)N(c1ccc3ccn(C)c3c1)C2`, the melting point was 158 to 161 °C. `COC(=O)[C@@H](Cc1ccccc1)NC(=O)OCc1cc2cc(-c3ccsc3)ccc2o1` had a melting point of 105 to 106 °C. In the case of `N#Cc1nn(-c2c(Cl)cc(C(F)(F)F)cc2Cl)c(NCc2ccncc2)c1SCF`, the melting point is 204 °C. `CCCCn1c(=O)c2nc(C(=O)OCC)cn2c2ccccc21` registered a melting point of 205 to 209 °C.

`CC(=O)c1ccc(COC(=O)N2CCN(CC3(C)Cn4cc([N+](=O)[O-])nc4O3)CC2)cc1` (configuration not stated) yielded a melting point of 101 to 102 °C. Under `COC(=O)CCC1(NC(=O)c2cc3c4ccccc4n(C(C)=O)c3cn2)C(=O)N(c2ccccc2)c2ccccc21` (configuration not stated) stands 189 to 192 °C; under `O=C(N[C@H]1CC[C@H](N2CCN(c3ccccn3)CC2)CC1)c1ccccc1`, 241 to 244 °C. The same measure for `C=CCNc1cc(C)nc2cn[nH]c12`: 172 to 174 °C; for `COc1ccc(S(=O)(=O)N2C(=O)C(c3ccccc3OC)(N3CCC[C@H]3C(=O)OC(C)(C)C)c3cc(Cl)ccc32)c(OC)c1` (some centres not stated): 136 °C. The same measure for `N#Cc1ccc(N2C(=O)N(CCCCO)C3(CCSCC3)C2=O)cc1C(F)(F)F`: 139 to 140 °C. The compound `O=C1c2cc(OCc3ccc4ccccc4n3)ccc2OCC1Oc1cccnc1` (configuration not stated) had a melting point of 174 to 175 °C. The compound `CCOC1CN(Cc2cc(OC)c(OC)c(OC)c2)Cc2cc(OC)c(OCc3ccccc3)cc21` (configuration not stated) gave a melting point of 132 to 133 °C. The same measure for `O=c1c2cc(F)c(N3CCCC3)cc2n(CC2CC2)c(=O)n1O`: 211 to 213 °C.

Turning to `O=C(c1cccnc1)c1cnc2c(cnn2Cc2ccco2)c1O`, the melting point was in the range of 152 to 153 °C. The same measure for `CCCc1nc2cc([N+](=O)[O-])ccc2n1Cc1ccc(C(=O)OCC)cc1`: 136 to 138 °C; for `Fc1cc(F)c(N=C2NCCN2)c(F)c1F`: 167 to 168 °C. The same measure for `CC(C)(S)C(NC(=O)c1ccc(Cl)cc1)C(=O)O` (configuration not stated): 174 °C. The same measure for `O=C(NNC(=O)c1occ(-c2ccccc2)c1-c1ccccc1)c1ccoc1`: 180 to 183 °C; for `Clc1ccc(-c2nc(Cc3nnn[nH]3)c(-c3ccccc3)s2)cc1`: 213 to 214 °C; for `CC1=CCC(C(=O)O)CC1` (configuration not stated): 95 °C. `Cc1nccn1-c1nc(-c2ccc(Cl)cc2)c(CCO)o1` yielded a melting point of 159 to 160 °C. Under `COc1ccc(OC)c2c1CC(O)(C(=O)O)CC21SCCS1` (configuration not stated) stands 178 to 180 °C; under `O=C(O)C(Cc1occ2ccccc12)NC(=O)C(CS)C(F)(F)F` (configuration not stated), 143 to 145 °C; under `O=C(NCc1cc(C(F)(F)F)cc(C(F)(F)F)c1)c1c(-c2ccccc2)c2cccnc2c(=O)n1CCCCO`, 155 to 157 °C.

As for `CCCCc1ncc(/C=C(\Cc2cccs2)C(=O)O)n1Cc1ccccc1OC`, the melting point was in the range of 186 to 187 °C.

Compound `CC(=O)NC[C@H]1CN(c2cc(F)c(N3CCC(n4cccc4)CC3)c(F)c2)C(=O)O1` gave a melting point of 186 to 188 °C. The same measure for `Cc1cc(Cl)ccc1OCC(=O)N1Cc2ccc(C(=O)c3ccc(C(C)(C)C)cc3)n2Cc2ccccc21`: 168 °C; for `O=C(O)CNC1CCc2ccccc21` (configuration not stated): 184 to 186 °C.

The record behind these values is a melting point compilation (Tetko et al.; mined from patent text by program, amines drawn as free bases though some values may be those of a salt).
